ChEMBL document CHEMBL2390884, “Design, synthesis and antiproliferative activity studies of novel 1,2,3-triazole-dithiocarbamate-urea hybrids” (Eur J Med Chem, 2013)

How the values were obtained:
Assay type in all cases: functional, cell-based
[1] = system: SMMC-7721; test: Cytotoxicity against human SMMC7721 cells after 72 hrs by MTT assay; conditions: SMMC-7721, 72 h
[2] = system: MCF7; test: Cytotoxicity against human MCF7 cells after 72 hrs by MTT assay; conditions: MCF7, 72 h
[3] = system: MGC-803; test: Cytotoxicity against human MGC803 cells after 72 hrs by MTT assay; conditions: MGC-803, 72 h
[4] = Cytotoxicity against human EC9706 cells after 72 hrs by MTT assay; conditions: EC9706, 72 h

Compound	IC50 [1] [µM]	IC50 [2] [µM]	IC50 [3] [µM]	IC50 [4] [µM]
O=C(NCc1ccccc1)N1CCN(C(=S)SCc2cn(Cc3ccccc3F)nn2)CC1	> 128	38.1	13.3	38.1
CCNC(=O)N1CCN(C(=S)SCc2cn(Cc3cc(OC)c(OC)c(OC)c3)nn2)CC1	> 128	> 128	101	> 128
CCNC(=O)N1CCN(C(=S)SCc2cn(Cc3ccc(Cl)cc3)nn2)CC1	> 128	> 128	35.4	> 128
CCNC(=O)N1CCN(C(=S)SCc2cn(Cc3ccc(C)cc3)nn2)CC1	> 128	> 128	19.8	> 128
NC(=O)N1CCN(C(=S)SCc2cn(Cc3ccccc3F)nn2)CC1	> 128	> 128	11.3	43.1
NC(=O)N1CCN(C(=S)SCc2cn(Cc3ccc(F)cc3)nn2)CC1	> 128	22.1	9.33	62.7
COc1ccc(Cn2cc(CSC(=S)N3CCN(C(N)=O)CC3)nn2)cc1	> 128	> 128	> 128	> 128
CCN(C)C(=O)N1CCN(C(=S)SCc2cn(Cc3ccccc3F)nn2)CC1	19.7	7.21	5.86	15.6
CCN(C)C(=O)N1CCN(C(=S)SCc2cn(Cc3ccc(F)cc3)nn2)CC1	23.7	2.15	1.55	14.3
CC(C)(C)NC(=O)N1CCN(C(=S)SCc2cn(Cc3ccccc3F)nn2)CC1	> 128	18.8	40.7	87.8
CCN(C)C(=O)N1CCN(C(=S)SCc2cn(Cc3ccc(OC)cc3)nn2)CC1	> 128	21.4	87.9	> 128
O=C(NC1CCCCC1)N1CCN(C(=S)SCc2cn(Cc3ccc(F)cc3)nn2)CC1	> 128	> 128	> 128	> 128
CCN(C)C(=O)N1CCN(C(=S)SCc2cn(Cc3ccc(Cl)cc3)nn2)CC1	38.2	14.7	4.32	17.7
COc1ccc(Cn2cc(CSC(=S)N3CCN(C(=O)NC(C)C)CC3)nn2)cc1	> 128	19.6	99.2	> 128
